Results as given in patent US20050244414A1, “Method to ameliorate osteolysis and metastasis” (XENOTECH INCORPORATED, priority 1995, published 2005).

Legend:
[1] = tested on: bone resorption; conditions: cited from earlier work
[2] = tested on: fetal rat long bone; test: Bone resorption measured as 45Ca release in organ culture; type: cell-based; conditions: stimulating factor alone at 10 ng/ml, 120 hours; untreated bones roughly 20%
Experimental: In this example, the percentage of labeled calcium (^45Ca) from fetal rat long bone was used as a measure of bone resorption. To label the bones, pregnant female rats at the 18th day of gestation were injected subcutaneously with 50 μCi of labeled calcium salt. The embryos were harvested the next day, at 19 days gestation, and long bones were obtained from the fetuses. The bones were cultured in standard media for 120 hours in the presence or absence of various putative bone resorption stimulation factors and in the presence and absence of the anti-PTH-rp (1-34) antibody used in Preparation A. The results are shown in FIG. 2.

| Molecule | potency relative to etidronate, ability to inhibit bone resorption [1] | release of labeled calcium (45Ca) into the medium [2] [%] |
| --- | --- | --- |
| NCCC(O)(P(=O)(O)O)P(=O)(O)O [pamidronate] | approximately 100 times |  |
| parathyroid hormone-related protein [PTH-rp] |  | ~90 |
| PTH: parathyroid hormone, bone resorption stimulating factor added to culture medium (protein, UniProt P01270 32-115, looked up, Parathyroid hormone, parathyroid hormone, bone resorption stimulating factor added to culture medium) Parathyroid hormone: SVSEIQLMHNLGKHLNSMERVEWLRKKLQDVHNFVALGAPLAPRDAGSQRPRKKEDNVLVESHEKSLGEADKADVNVLTKAKSQ |  | ~90 |
